The values that follow come from US9562031B1, “Phenethyldihydrobenzodioxolones and methods of use” (Sequoia Sciences, Inc., priority 2015, dated 2017).

Series [1] deals with MES-SA/Dx5 cells. Kind of series: antiproliferation assay, MES-SA/Dx5. The format is cell-based. To be noted: Homo sapiens. The procedure:
(§1) For the antiproliferation assay, NCI-H460 (large cell lung carcinoma) or M14 (amelanotic melanoma) cells were grown in RPMI-1640 with 10% FBS supplemented with L-glutamine and HEPES. Cells were seeded into 96-well plates at 5×10^2 to 5×10^4 cells/well and allowed to adhere overnight; the medium was then removed. A stock solution of test compound in DMSO was diluted in medium to generate a series of working solutions. Aliquots (100 μl) of the working solutions were then added to the appropriate test wells to expose cells to the final concentrations of compound in a total volume of 100 μl. Seven different concentrations were tested, with 2-5 wells per concentration. Camptothecin was used as a positive control; wells containing vehicle without compound were used as negative controls. Plates were kept for 72 h in a 37° C., 5% CO2 incubator. After incubation, viable cells were detected with the CELLTITER 96 AQueous Non-Radioactive Cell Proliferation Assay (Promega), and IC50 values were determined using GraphPad Prism 5 software.
(§2) Antiproliferation of several of the active compounds was tested against additional cell lines.
(§3) Compound 4 was tested for antiproliferation activity against several paclitaxel-resistant human cancer cell lines.

For series [2], the system named is MOLT-4 cells. Kind of series: antiproliferation assay, MOLT-4. The format is cell-based. The following applies: Homo sapiens. The procedure:
as §1, §2

In series [3] the test system is NCI-H187 cells. Kind of series: antiproliferation assay, NCI-H187. It is filed as cell-based. To be noted: Homo sapiens. How it is done:
as §1, §2

In series [4] the test system is NCI-H727 xenograft tumors. Kind of series: tumor growth inhibition, NCI-H727 murine xenograft model. The format is in vivo, mice. The following applies: IP 40 mg/kg, days 0,1,2,5,6,7,10,11,12. The procedure: (§4) Tumor growth inhibition of compound 4 was measured in several murine xenograft models, and the results of individual experiments are listed in Table 14. Tumors were initiated by subcutaneous injection of either tumor cells from cell culture or tumor fragments from continuous in vivo passage. When tumors reached volumes between approximately 100 and 200 mm^3, the mice were divided into vehicle and treatment groups. Compound or vehicle was administered by IP injection in a volume of 5-10 mL/kg.
(§5) Changes in tumor weight (delta weights) for each treated (T) and control (C) group are calculated for each day tumors are measured by subtracting the median tumor weight on the first day of treatment (staging day) from the median tumor weight on the specified observation day. These values are used to calculate a percent T/C as follows: % T/C=(delta T/delta C)×100. The optimal T/C is the minimal value obtained after the first treatment.

The subject of series [5] is DLD-1 cells. Kind of series: antiproliferation assay, paclitaxel-resistant DLD-1. It is filed as cell-based. The following applies: Homo sapiens. The procedure: as §1, §3
The test system of series [6] is OVCAR-3 cells. Kind of series: antiproliferation assay, OVCAR-3. The format is cell-based. To be noted: Homo sapiens. The procedure:
as §1, §2

For series [7], the system named is LOX-IMVI cells. Kind of series: antiproliferation assay, LOX-IMVI. The format is cell-based. To be noted: Homo sapiens. How it is done:
as §1, §2

The test system of series [8] is NCI-H522 (lung) xenograft tumors. Kind of series: tumor growth inhibition, NCI-H522 murine xenograft model. It is filed as in vivo, mice. The following applies: IP 40 mg/kg, days 0,1,2,5,6,7,10,11,12. How it is done:
as §4, §5

For series [9], the system named is NCI/ADR-RES cells. Kind of series: antiproliferation assay, NCI/ADR-RES. It is filed as cell-based. To be noted: Homo sapiens. How it is done: as §1, §2, §3
Series [10] has as its system IGR-OV1 cells. Kind of series: NCI-60 panel antiproliferation, IGR-OV1. The format is cell-based, human. To be noted: Homo sapiens, IGROV-1, NCI 60-cell panel. How it is done: (§6) Bifidenone and Compound 37 were tested for antiproliferation activity against the NCI-60 panel of cancer cell lines. COMPARE analysis was then conducted to compare the activity “fingerprint” of bifidenone to those of known classes of compounds (Zhou, B.-N., Hoch, J. M., Johnson, R. K., Mattern, M. R., Eng, W.-K., Ma, J., Hecht, S. M., Newman, D. J., Kingston, D. G. I., 2000. Use of COMPARE Analysis to Discover New Natural Product Drugs: Isolation of Camptothecin and 9-Methoxycamptothecin from a New Source. Journal of Natural Products 63, 1273-1276.).

Series [11] has as its system LOX IMVI cells. Kind of series: NCI-60 panel antiproliferation, LOX IMVI. The following applies: Homo sapiens, NCI 60-cell panel. The format is cell-based, human. The procedure:
as §6

For series [12], the system named is HT29 cells. Kind of series: NCI-60 panel antiproliferation, HT29. The format is cell-based, human. To be noted: Homo sapiens, HT-29, NCI 60-cell panel. How it is done: as §6
Series [13] concerns SF-295 cells. Kind of series: NCI-60 panel antiproliferation, SF-295. The format is cell-based, human. The following applies: Homo sapiens, NCI 60-cell panel. How it is done:
as §6

Series [14] has as its system U251 cells. Kind of series: NCI-60 panel antiproliferation, U251. The format is cell-based, human. To be noted: Homo sapiens, U-251, NCI 60-cell panel. The procedure:
as §6

Series [15] concerns OVCAR-8 cells. Kind of series: NCI-60 panel antiproliferation, OVCAR-8. The following applies: Homo sapiens, NCI 60-cell panel. It is filed as cell-based, human. The procedure:
as §6

Series [16] has as its system KM12 cells. Kind of series: NCI-60 panel antiproliferation, KM12. The format is cell-based, human. The following applies: Homo sapiens, NCI 60-cell panel. How it is done:
as §6

The test system of series [17] is Hs578T cells. Kind of series: NCI-60 panel antiproliferation, Hs578T. The following applies: Homo sapiens, Hs-578T, NCI 60-cell panel. It is filed as cell-based, human. How it is done:
as §6

The subject of series [18] is MDA-MB-468 cells. Kind of series: NCI-60 panel antiproliferation, MDA-MB-468. It is filed as cell-based, human. To be noted: Homo sapiens, NCI 60-cell panel. The procedure:
as §6

The subject of series [19] is UACC-257 cells. Kind of series: NCI-60 panel antiproliferation, UACC-257. The format is cell-based, human. To be noted: Homo sapiens, NCI 60-cell panel. How it is done: as §6
Series [20] has as its system HOP-62 cells. Kind of series: NCI-60 panel antiproliferation, HOP-62. The format is cell-based, human. To be noted: Homo sapiens, NCI 60-cell panel. How it is done:
as §6

In series [21] the test system is MDA-MB-231 cells. Kind of series: NCI-60 panel antiproliferation, MDA-MB-231. It is filed as cell-based, human. The following applies: Homo sapiens, NCI 60-cell panel. How it is done:
as §6

For series [22], the system named is OVCAR-5 cells. Kind of series: NCI-60 panel antiproliferation, OVCAR-5. It is filed as cell-based, human. The following applies: Homo sapiens, NCI 60-cell panel. How it is done:
as §6

In series [23] the test system is CCRF-CEM cells. Kind of series: NCI-60 panel antiproliferation, CCRF-CEM. It is filed as cell-based, human. The following applies: Homo sapiens, NCI 60-cell panel. The procedure: as §6
Series [24] has as its system HOP-92 cells. Kind of series: NCI-60 panel antiproliferation, HOP-92. It is filed as cell-based, human. To be noted: Homo sapiens, NCI 60-cell panel. How it is done:
as §6

Series [25] concerns SF-539 cells. Kind of series: NCI-60 panel antiproliferation, SF-539. The format is cell-based, human. The following applies: Homo sapiens, NCI 60-cell panel. How it is done: as §6
Series [26] relates to BT-549 cells. Kind of series: NCI-60 panel antiproliferation, BT-549. It is filed as cell-based, human. To be noted: Homo sapiens, NCI 60-cell panel. The procedure: as §6
For series [27], the system named is SF-268 cells. Kind of series: NCI-60 panel antiproliferation, SF-268. It is filed as cell-based, human. To be noted: Homo sapiens, NCI 60-cell panel. How it is done: as §6
Series [28] deals with SW-620 cells. Kind of series: NCI-60 panel antiproliferation, SW-620. It is filed as cell-based, human. The following applies: Homo sapiens, NCI 60-cell panel. The procedure:
as §6

Series [29] relates to RXF-393 cells. Kind of series: NCI-60 panel antiproliferation, RXF-393. The format is cell-based, human. The following applies: Homo sapiens, NCI 60-cell panel. The procedure:
as §6

In series [30] the test system is M14 cells. Kind of series: NCI-60 panel antiproliferation, M14. It is filed as cell-based, human. To be noted: Homo sapiens, NCI 60-cell panel. The procedure: as §6
In series [31] the test system is ACHN cells. Kind of series: NCI-60 panel antiproliferation, ACHN. It is filed as cell-based, human. The following applies: Homo sapiens, NCI 60-cell panel. The procedure:
as §6

`C=CC[C@H]1C[C@]2([C@H](C)Cc3cc(O)c(OC)cc3F)OCOC2=CC1=O` (relative stereo) [Compound 4, 6-allyl-7a-(1-(2-fluoro-5-hydroxy-4-methoxyphenyl)propan-2-yl)-7,7a-dihydrobenzo[d][1,3]dioxol-5(6H)-one]: the IC50 was 13 nM in series [1] (MES-SA/Dx5, MES-SA/Dx5); 14 nM in series [1] (MES-SA/Dx5, paclitaxel-resistant MES-SA/Dx5); 28 nM in series [2]; 21 nM in series [3]; less than 5 nM in series [5]; 12 nM in [6]. Moreover, the IC50 stood at 11 nM in series [7], 9.1 nM in [9] and 9 nM in [9] (paclitaxel-resistant NCI/ADR-RES). Further, the “Maximum Mean Body Weight Loss” value is on record as 0% in series [4] and 5% in series [8]. Moreover, the “Optimal T/C” value was determined as 30% in [4] and 13% in [8].
As to `C=CC[C@H]1C[C@]2([C@@H](C)Cc3ccc(OC)c(F)c3)OCOC2=CC1=O` [Compound 37, (6S,7aR)-6-allyl-7a-((S)-1-(3-fluoro-4-methoxyphenyl)propan-2-yl)-7,7a-dihydrobenzo[d][1,3]dioxol-5(6H)-one], the IC50 came out at 63 nM in series [10]; 27 nM in series [11]; 88 nM in series [12]; 48 nM in [13]; 123 nM in series [14]; 110 nM in [15]. The IC50 in series [16] was 55 nM; in series [17], 72 nM; in [18] it was 59 nM; in series [19], 43 nM; in [20] it was 102 nM; in [21], 837 nM. Further, the half-maximal inhibitory concentration (IC50) is 119 nM in [22]; 60 nM in series [23]; greater than 10000 nM in series [24]; 74 nM in series [25]; 63 nM in series [26]; 623 nM in series [27]. For the same compound, the IC50 in series [28] was 47 nM; in series [29], 95 nM; in [30], 59 nM; in series [31] it was 32 nM.
